Results as given in ChEMBL document CHEMBL1149662, “Design and synthesis of a library of tertiary amides: evaluation as mimetics of the melanocortins' active core” (Bioorg Med Chem, 2007).

Columns and labels:
[1] = molecular target: Melanocortin receptor 4 (Homo sapiens, UniProt P32245); test: Displacement of [125I]NDP-MSH from human recombinant MC4 receptor expressed in Sf9 cells
[2] = molecular target: Melanocortin receptor 5 (Homo sapiens, UniProt P33032); test: Displacement of [125I]NDP-MSH from human recombinant MC5 receptor expressed in Sf9 cells
Chain of Melanocortin receptor 5 (P33032 whole entry): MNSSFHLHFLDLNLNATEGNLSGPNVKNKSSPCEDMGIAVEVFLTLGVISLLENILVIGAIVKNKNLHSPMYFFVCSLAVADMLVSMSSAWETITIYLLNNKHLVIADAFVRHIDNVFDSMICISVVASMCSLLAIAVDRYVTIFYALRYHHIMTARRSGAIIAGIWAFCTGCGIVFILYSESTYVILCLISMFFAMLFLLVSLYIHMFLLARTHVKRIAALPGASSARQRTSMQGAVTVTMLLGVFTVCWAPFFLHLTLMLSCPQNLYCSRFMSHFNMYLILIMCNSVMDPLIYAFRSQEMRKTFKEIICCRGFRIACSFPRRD

[3] = molecular target: Melanocyte-stimulating hormone receptor (Mus musculus, UniProt Q01727); test: Displacement of [125I]NDP-MSH from MC1 receptor in mouse B16 cells; assay type: cell-based
Chain of Melanocyte-stimulating hormone receptor (Q01727 whole entry): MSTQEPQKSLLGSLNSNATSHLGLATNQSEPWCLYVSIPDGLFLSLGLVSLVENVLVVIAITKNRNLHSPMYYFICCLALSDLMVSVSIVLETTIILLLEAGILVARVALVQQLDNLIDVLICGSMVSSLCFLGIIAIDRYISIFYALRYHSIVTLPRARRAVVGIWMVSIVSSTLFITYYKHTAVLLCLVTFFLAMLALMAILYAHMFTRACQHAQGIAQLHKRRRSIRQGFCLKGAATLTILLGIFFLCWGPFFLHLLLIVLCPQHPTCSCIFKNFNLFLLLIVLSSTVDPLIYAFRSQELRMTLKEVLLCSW

[4] = molecular target: Melanocortin receptor 3 (Homo sapiens, UniProt P41968); test: Displacement of [125I]NDP-MSH from human recombinant MC3 receptor expressed in Sf9 cells
Chain of Melanocortin receptor 3 (P41968 whole entry): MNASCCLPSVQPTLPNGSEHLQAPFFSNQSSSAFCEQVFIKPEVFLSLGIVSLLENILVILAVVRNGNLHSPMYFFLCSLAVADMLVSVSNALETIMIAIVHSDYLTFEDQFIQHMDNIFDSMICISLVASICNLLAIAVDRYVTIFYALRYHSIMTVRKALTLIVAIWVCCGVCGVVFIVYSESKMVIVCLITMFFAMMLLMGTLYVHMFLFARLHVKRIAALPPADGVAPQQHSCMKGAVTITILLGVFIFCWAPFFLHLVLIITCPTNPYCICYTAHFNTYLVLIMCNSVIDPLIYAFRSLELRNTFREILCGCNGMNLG

Chain of Melanocortin receptor 4 (P32245 whole entry): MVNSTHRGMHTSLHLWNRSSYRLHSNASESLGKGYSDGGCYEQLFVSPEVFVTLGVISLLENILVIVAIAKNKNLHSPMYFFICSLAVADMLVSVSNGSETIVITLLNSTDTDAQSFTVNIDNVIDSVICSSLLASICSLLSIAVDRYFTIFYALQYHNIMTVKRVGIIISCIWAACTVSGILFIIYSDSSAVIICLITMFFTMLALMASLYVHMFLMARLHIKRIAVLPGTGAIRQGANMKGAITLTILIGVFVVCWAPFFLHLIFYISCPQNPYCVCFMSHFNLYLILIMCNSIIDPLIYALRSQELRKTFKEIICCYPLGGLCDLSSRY

Compound | Ki [1] [µM] | Ki [2] [µM] | Ki [3] [µM] | Ki [4] [µM]
N=C(N)NC1CCC(CC2CCC(N(Cc3ccccc3)C(=O)CCCc3c[nH]c4ccccc34)CC2)CC1 (configuration not stated) | 3.4 | 2.6 | 1.5 | 19
N#Cc1ccc(CN(C(=O)CCCc2c[nH]c3ccccc23)C2CCC(CC3CCC(N)CC3)CC2)cc1 (stereo in doubt; form 1) | 2 | 6.5 | 1.6 | 12
NC1CCC(CC2CCC(N(C/C(Cl)=C/c3ccccc3)C(=O)COc3ccc4ccccc4c3)CC2)CC1 (stereo in doubt; form 4) | 4.4 | – | 0.96 | –
NCCCN(CCCc1ccccc1)C(=O)Cc1c[nH]c2ccccc12 | 32 | 13 | 5 | 5.7
C/C(=C\c1ccccc1)CN(CCCN)C(=O)C(=O)c1c[nH]c2ccccc12 | 6.2 | 58 | 1.8 | 9.1
NCCCN(Cc1ccccc1)C(=O)CCCc1c[nH]c2ccccc12 | 16 | 25 | 17 | 45
COC(=O)c1ccc(CN(C(=O)CCCc2c(Cc3ccc(O)cc3)[nH]c3ccccc23)C2CCC(CC3CCC(N)CC3)CC2)cc1 (configuration not stated) | 2.7 | 6.7 | 4.3 | 46
CC(c1csc2ccccc12)N(CCCN)C(=O)CCCc1c[nH]c2ccccc12 (configuration not stated) | 9.8 | 55 | 7.4 | 104
CC1CC(CC2CCC(N(Cc3ccccc3)C(=O)CCCc3c[nH]c4ccccc34)C(C)C2)CCC1N (stereo in doubt; form 2) | 3.2 | 4.8 | 0.87 | 22
COc1ccc(CN(C(=O)CCCc2c[nH]c3ccccc23)C2CCC(CC3CCC(N)CC3)CC2)cc1Br (configuration not stated) | 4.8 | 278 | 2.9 | 9.3
NC1CCC(CC2CCC(N(Cc3ccccc3)C(=O)CCCc3c[nH]c4ccccc34)CC2)CC1 (stereo in doubt; 10d-40-8) | 8.3 | 18 | 0.42 | 9.4
CCC(c1ccccc1)N(CCCCN)C(=O)CCc1c[nH]c2ccccc12 (configuration not stated) | 158 | 13 | 15 | 38
COc1ccc(CN(C(=O)CCCc2c(Cc3ccc(O)cc3)[nH]c3ccccc23)C2CCC(CC3CCC(N)CC3)CC2)cc1Br (configuration not stated) | 2.5 | 23 | 2.6 | 132
NC1CCC(CC2CCC(N(Cc3ccccc3)C(=O)CCCc3c[nH]c4ccccc34)CC2)CC1 (stereo in doubt) | 2.6 | 105 | 1.4 | 15
NCCCCCN(Cc1ccccc1)C(=O)CCCc1c[nH]c2ccccc12 | 6.4 | 4.6 | 3.2 | 15
CC1CC(CC2CCC(N(C/C(Cl)=C/c3ccccc3)C(=O)CCCc3c[nH]c4ccccc34)C(C)C2)CCC1N (stereo in doubt; form 2) | 3.1 | 4.8 | 2.2 | 13
NCCCCN(C/C(Cl)=C/c1ccccc1)C(=O)CCCc1c[nH]c2ccccc12 | 5.4 | 85 | 2.4 | 32
NCCN(Cc1ccccc1)C(=O)CCCc1c[nH]c2ccccc12 | 21 | – | 22 | 49
NCCCN(C(=O)CCc1c[nH]c2ccccc12)C1CCc2ccccc2C1 (configuration not stated) | 7 | – | 3.7 | –
NC1CCC(CC2CCC(N(C/C(Cl)=C/c3ccccc3)C(=O)COc3ccc4ccccc4c3)CC2)CC1 (stereo in doubt; form 7) | 4 | – | 1.3 | –
NCCN(CCCc1ccccc1)C(=O)CCc1c[nH]c2ccccc12 | – | 20 | 21 | 127
NC1CCC(CC2CCC(N(C/C(Cl)=C/c3ccccc3)C(=O)COc3ccc4ccccc4c3)CC2)CC1 (stereo in doubt; form 6) | 5 | – | 1.9 | –
NC1CCC(CC2CCC(N(C/C(Cl)=C/c3ccccc3)C(=O)COc3ccc4ccccc4c3)CC2)CC1 (stereo in doubt; form 2) | 5.9 | – | 1.5 | 289
NCCN(C/C(Cl)=C/c1ccccc1)C(=O)CCCc1c[nH]c2ccccc12 | 5.8 | – | 5.6 | 65
NC1CCC(CC2CCC(N(C/C(Cl)=C/c3ccccc3)C(=O)COc3ccc4ccccc4c3)CC2)CC1 (stereo in doubt; form 3) | 3.4 | – | 0.41 | –
C/C(=C/c1ccccc1)CN(CCCCCN)C(=O)/C=C/c1c[nH]c2ccccc12 | 99 | 17 | 2.7 | –
NC1CCC(CC2CCC(N(Cc3ccncc3)C(=O)CCCc3c[nH]c4ccccc34)CC2)CC1 (stereo in doubt; form 1) | 7 | – | 2.5 | 28
